Reference: article PMC10537105, “Derivatives Incorporating Acridine, Pyrrole, and Thiazolidine Rings as Promising Antitumor Agents” (Molecules, 2023)

Experiments:
HCT-116 = assay: MTT assay, HCT-116 cells; format: cell-based, human; conditions: Homo sapiens, HCT-116; MTT, 72 h of incubation; read-out: IC50 values ± SD, HCT-116
Text: (§1) The impact of acridine spiro derivatives 6–10 (Figure 13) on the metabolic activity of various tumor cell lines HCT-116 (human colorectal carcinoma), Jurkat (human leukemia cells), HeLa (human cervical adenocarcinoma), MDA-MB-231, and MCF-7 (human breast adenocarcinoma), and normal cell lines COS-7 (monkey kidney cells) and BJ-5ta (skin fibroblasts) was investigated using the MTT assay. This assay measures the conversion of yellow 3-(4,5-dimethylthiazol-2-yl)-2,5-diphenyltetrazolium bromide (MTT) to insoluble purple formazan by metabolically active cells. The antiproliferative activities of the tested compounds were determined based on the results from the MTT assay, and the inhibitory concentration values (IC50) are presented in Table 5.
(§2) The human cancer cell lines employed in this study were sourced from reputable institutions, including the American Type Culture Collection (ATCC; Manassas, VA, USA) and the European Collection of Authenticated Cell Cultures (ECACC, Salisbury, UK). Specifically, HeLa (93021013, human cervical adenocarcinoma), HCT116 (CCL-247TM, human colorectal carcinoma), and Jurkat (88042803, human leukemic T-cell lymphoma) were cultured in RPMI 1640 medium (Biosera, Kansas City, MO, USA). In contrast, MCF-7 (HTB-22TM, human breast adenocarcinoma, ER+), MDA-MB-231 (HTB-26TM, human breast adenocarcinoma, ER−), and COS-7 (CRL-1651TM, kidney fibroblasts) were nurtured in high-glucose Dulbecco’s Modified Eagle Medium (DMEM) supplemented with sodium pyruvate (Biosera). Furthermore, BJ-5ta (CRL-4001TM, human dermal fibroblasts) was cultured in a composite medium of high-glucose DMEM and M199 (4:1) (Biosera), supplemented with Hygromycin B (0.01 mg/mL; Merck, Darmstadt, Germany). All culture media were enriched with a 10% fetal bovine serum (FBS; Gibco, Thermo Scientific, Rockford, IL, USA) and an antibiotic/antimycotic solution (Merck) to ensure optimal growth conditions. The cells were meticulously maintained within a humidified environment containing 5% CO2 at 37 °C. Regular screenings for mycoplasma contamination were conducted using Hoechst 33342 staining (Merck), confirming the integrity of the cell lines.
(§3) To assess the antiproliferative impact of the synthesized compounds 6–10, their half-maximal inhibitory concentration (IC50) and the MTT colorimetric assay were employed. MDA-MB-231 and MCF-7 cells were seeded into 96-well microplates (SARSTEDT, Nümbrecht, Germany) at a density of 5 × 10^3 cells per well. After 24 h of cell seeding, various concentrations (100, 50, and 10 µmol/L) of acridine derivatives 6–10 were introduced, alongside cisplatin (utilized as a reference) at concentrations of 5, 10, 20, 50, and 100 µmol/L. Subsequent to 24, 48, and 72 h of treatment, the cells in each well underwent incubation with MTT (5 mg/mL, Sigma-Aldrich Chemie, Steinheim, Germany) for 4 h at 37 °C in the dark. During this period, mitochondrial oxidoreductases metabolized MTT, forming insoluble formazan. Following this, 100 µL of SDS (10% […]) was added to dissolve the formazan crystals, and the cells were incubated for an additional 12 h. Absorbance at 540 nm was measured using the automated Cytation™ 3 Cell Imaging Multi-Mode Reader (Biotek, Winooski, VT, USA). Each test was performed in triplicate, and three independent experiments were conducted to ensure precision and reliability.

MDA-MB-231 = assay: MTT assay, MDA-MB-231 cells; format: cell-based, human; conditions: Homo sapiens, MDA-MB-231, 72 h of incubation, read-out: IC50 values ± SD, MDA-MB-231
Text: as §1, §2, §3

HeLa = assay: MTT assay, HeLa cells; format: cell-based, human; conditions: Homo sapiens, HeLa, 72 h of incubation, read-out: IC50 values ± SD, HeLa
Text: as §1, §2, §3

BJ-5ta = assay: MTT assay, BJ-5ta normal fibroblasts; format: cell-based, human; conditions: Homo sapiens, Fibroblast, 72 h of incubation, normal cell line, read-out: IC50 values ± SD, BJ-5ta
Text: as §1, §2, §3

Jurkat = assay: MTT assay, Jurkat cells; format: cell-based, human; conditions: Homo sapiens, Jurkat; MTT, 72 h of incubation; read-out: IC50 values ± SD, Jurkat
Text: as §1, §2, §3

COS-7 = assay: MTT assay, COS-7 normal cells; format: cell-based, monkey; conditions: Primates, COS-7, 72 h of incubation, normal cell line, read-out: IC50 values ± SD, COS-7
Text: as §1, §2, §3

MCF-7 = assay: MTT assay, MCF-7 cells; format: cell-based, human; conditions: Homo sapiens, MCF7, 72 h of incubation, read-out: IC50 values ± SD, MCF-7
Text: as §1, §2, §3

Row | melting point | IC50 (HCT-116) [µM] | IC50 (MDA-MB-231) [µM] | IC50 (HeLa) [µM] | IC50 (Jurkat) [µM] | IC50 (MCF-7) [µM] | Compound | IC50 (BJ-5ta) [µM] | IC50 (COS-7) [µM]
1 | 238 to 240 °C (dec.) | > 100 | > 100 | > 100 | > 100 | > 100 | CCCC1S/C(=N\N2C(=O)C(C#N)=CC23c2ccccc2Nc2ccccc23)N(c2ccccc2)C1=O (stereo not drawn) [10a, 5′-Oxo-1′-{[(2Z)-4-oxo-3-phenyl-5-propyl-1,3-thiazolidin-2-ylidene]amino}-1′,5′-dihydro-10H-spiro[acridine-9,2′-pyrrole]-4′-carbonitrile] | > 100 | > 100
2 | 247 to 250 °C (dec.) | > 100 | > 100 | > 100 | > 100 | > 100 | CCCC1S/C(=N\N2C(=O)C(C#N)=CC23c2ccccc2Nc2ccccc23)N(c2ccc(OC)cc2)C1=O (stereo not drawn) [10b, 1′-{[(2Z)-3-(4-Methoxyphenyl)-4-oxo-5-propyl-1,3-thiazolidin-2-ylidene]amino}-5′-oxo-1′,5′-dihydro-10H-spiro[acridine-9,2′-pyrrole]-4′-carbonitrile] | > 100 | > 100
3 | 229 to 231 °C (dec.) | > 100 | > 100 | > 100 | > 100 | > 100 | CCCC1S/C(=N\N2C(=O)C(C#N)=CC23c2ccccc2Nc2ccccc23)N(c2cccc(OC)c2)C1=O (stereo not drawn) [10c, 1′-{[(2Z)-3-(3-Methoxyphenyl)-4-oxo-5-propyl-1,3-thiazolidin-2-ylidene]amino}-5′-oxo-1′,5′-dihydro-10H-spiro[acridine-9,2′-pyrrole]-4′-carbonitrile] | > 100 | > 100
4 | 230 to 232 °C (dec.) | > 100 | > 100 | > 100 | > 100 | > 100 | CCCC1S/C(=N\N2C(=O)C(C#N)=CC23c2ccccc2Nc2ccccc23)N(c2ccc(F)cc2)C1=O (stereo not drawn) [10d, 1′-{[(2Z)-3-(4-Fluorophenyl)-4-oxo-5-propyl-1,3-thiazolidin-2-ylidene]amino}-5′-oxo-1′,5′-dihydro-10H-spiro[acridine-9,2′-pyrrole]-4′-carbonitrile] | > 100 | > 100
5 | 249 to 251 °C (dec.) | > 100 | > 100 | > 100 | > 100 | 91.3 ± 3.74 | CCCC1S/C(=N\N2C(=O)C(C#N)=CC23c2ccccc2Nc2ccccc23)N(c2ccc([N+](=O)[O-])cc2)C1=O (stereo not drawn) [10e, 1′-{[(2Z)-3-(4-Nitrophenyl)-4-oxo-5-propyl-1,3-thiazolidin-2-ylidene]amino}-5′-oxo-1′,5′-dihydro-10H-spiro[acridine-9,2′-pyrrole]-4′-carbonitrile] | > 100 | > 100

Continued, compound first:

Row | Compound | melting point | IC50 (HCT-116) [µM] | IC50 (MDA-MB-231) [µM] | IC50 (HeLa) [µM] | IC50 (Jurkat) [µM] | IC50 (MCF-7) [µM] | IC50 (BJ-5ta) [µM] | IC50 (COS-7) [µM]
6 | COc1ccc(N2C(=O)C(C)S/C2=N\N2C(=O)C(C#N)=CC23c2ccccc2Nc2ccccc23)cc1 (stereo not drawn) [9b, 1′-{[(2Z)-3-(4-Methoxyphenyl)-5-methyl-4-oxo-1,3-thiazolidin-2-ylidene]amino}-5′-oxo-1′,5′-dihydro-10H-spiro[acridine-9,2′-pyrrole]-4′-carbonitrile] | 219 to 224 °C (dec.) | > 100 | > 100 | > 100 | > 100 | > 100 | > 100 | > 100
7 | COc1cccc(N2C(=O)C(C)S/C2=N\N2C(=O)C(C#N)=CC23c2ccccc2Nc2ccccc23)c1 (stereo not drawn) [9c, 1′-{[(2Z)-3-(3-Methoxyphenyl)-5-methyl-4-oxo-1,3-thiazolidin-2-ylidene]amino}-5′-oxo-1′,5′-dihydro-10H-spiro[acridine-9,2′-pyrrole]-4′-carbonitrile] | 237 to 240 °C (dec.) | 32.7 ± 1.51 | 40.8 ± 0.84 | 44 ± 5.88 | 25.8 ± 2.58 | 65.3 ± 1.89 | 32.7 ± 0.47 | > 100
8 | CC1S/C(=N\N2C(=O)C(C#N)=CC23c2ccccc2Nc2ccccc23)N(c2ccc(F)cc2)C1=O (stereo not drawn) [9d, 1′-{[(2Z)-3-(4-Fluorophenyl)-5-methyl-4-oxo-1,3-thiazolidin-2-ylidene]amino}-5′-oxo-1′,5′-dihydro-10H-spiro[acridine-9,2′-pyrrole]-4′-carbonitrile] | 235 to 239 °C (dec.) | > 100 | > 100 | > 100 | > 100 | > 100 | > 100 | > 100
9 | CC1S/C(=N\N2C(=O)C(C#N)=CC23c2ccccc2Nc2ccccc23)N(c2ccc([N+](=O)[O-])cc2)C1=O (stereo not drawn) [9e, 1′-{[(2Z)-5-Methyl-3-(4-nitrophenyl)-4-oxo-1,3-thiazolidin-2-ylidene]amino}-5′-oxo-1′,5′-dihydro-10H-spiro[acridine-9,2′-pyrrole]-4′-carbonitrile] | 170 to 173 °C (dec.) | > 100 | > 100 | > 100 | 34.4 ± 2.13 | > 100 | > 100 | > 100
